SMILES strings stand for the structures.

Assay [1] deals with T1, human cathepsin G (HCG) (Homo sapiens, UniProt P08311).
T1 construct: purchased Cosmo Bio Inc
T1 sequence (P08311 21-244): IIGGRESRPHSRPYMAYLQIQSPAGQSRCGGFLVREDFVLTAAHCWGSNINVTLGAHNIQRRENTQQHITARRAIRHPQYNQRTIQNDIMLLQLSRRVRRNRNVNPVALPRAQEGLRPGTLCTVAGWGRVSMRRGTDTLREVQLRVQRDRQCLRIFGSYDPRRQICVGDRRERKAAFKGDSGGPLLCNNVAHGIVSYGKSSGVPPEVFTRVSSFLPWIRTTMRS
In words: HCG inhibitory activity (synthetic substrate, pNA release). In kind it is biochemical. Particulars: pH 7.5; HCG 50 nM, substrate 0.5 mM; read-out: IC₅₀ value HCG. Here is the method: (§1) Activities of the Benzoxazine derivatives of the present invention against human leukocyte elastase (HLE), human sputum elastase (HSE), human cathepsin G (HCG), bovine pancreatic α-chmotrypsin (CYT) and bovine pancreatic trypsin (TRY) were measured by the following method.
(§2) A test compound was dissolved in DMSO (for fluorometry) and prepared various concentration of the solution. To each concentration was added 2-fold volume of 0.2M Tris-HCl (pH8.6), thereby obtaining a test solution. Synthetic substrate (Funakoshi, L-1335) was dissolved in DMSO and 2-volume of 0.2M Tris-HCl (pH8.6) was added thereto, thereby obtaining a substrate solution. The reaction was performed using a microplate having 96 wells (Nunk). Six-time reactions were repeated for each concentration. One handred and forty µl of an enzyme solution containing 0.2M Tris-HCl (pH8.6), 30 µl of a test solution and 30 µl of a substrate solution per well of the microplate were respectively pre-incubated at 37°C for 10 minutes. After completion of the incubation, the enzyme solution was mixed with the test sample and incubated for 10 minutes and then the substrate solution was added to perform an enzyme reaction. The absorbance of released P-nitroanilide (PNA) was measured at the wave length of 405 nm by means of a microplate reader (MTP-100; CORONA), thereby determining the substrate decomposition. The rate of the substrate decomposition was shown as an average value of 6 repeated reactions. The inhibitory concentration of a test compound relative to the amount of the substrate decomposition in the reaction mixture without a test compound was regarded as an IC₅₀ value. The final concentration of HLE and a synthesized substrate in the reaction mixture were 5.63 nM and 0.2625 mM, respectively.
a) Enzyme obtaining route HCG was obtained from Cosmo Bio Inc.
The same method as in the measurement of HLE inhibitory activity was used except that a buffer solution (pH 7.5) was used. The final concentration of HCG and synthetic substrate (Funakoshi, L-1010) in a reaction mixture were 50 nM and 0.5 mM, respectively.

Assay [2] has as its target T2, bovine pancreatic α-chmotrypsin (CYT) (Bos taurus, UniProt P00766).
T2 construct: bovine pancreatic α-chmotrypsin (CYT); purchased Sigma Co., Ltd
Put plainly: CYT inhibitory activity (synthetic substrate, pNA release). The following applies: pH 8.0; CYT 3.4 nM, substrate 0.273 mM; read-out: IC₅₀ value CYT. In kind it is biochemical. The protocol:
as §1, §2
a) Enzyme obtaining route CYT was obtained from Sigma Co., Ltd.
Substantially the same method as used in the measurement of the HLE inhibitory activity was used except that a buffer solution (pH 8.0) was used. The final concentration of CYT and synthetic substrate (Funakoshi, L-1010) in a reaction mixture were 3.4 nM and 0.273 mM, respectively.

Assay [3] addresses T3, bovine pancreatic trypsin (TRY) (Bos taurus, UniProt P00760).
T3 construct: bovine pancreatic trypsin (TRY); purchased Sigma Inc
T3 sequence (P00760 24-246): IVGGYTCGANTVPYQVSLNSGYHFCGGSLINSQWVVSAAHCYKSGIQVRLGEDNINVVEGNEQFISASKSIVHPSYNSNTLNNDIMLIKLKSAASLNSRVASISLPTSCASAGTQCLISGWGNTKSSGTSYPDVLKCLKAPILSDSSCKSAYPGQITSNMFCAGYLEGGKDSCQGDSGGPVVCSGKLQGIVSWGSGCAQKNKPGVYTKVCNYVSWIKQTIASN
In words: TRY inhibitory activity (synthetic substrate, pNA release). It counts as biochemical. Particulars: pH 7.5; TRY 25 nM, substrate Z-Arg-pNA 1.0 mM; read-out: IC₅₀ value TRY. The protocol:
as §1
as §2, with “The rate of the substrate decomposition was shown as an average value of 6 repeated reactions. The inhibitory concentration of a test compound relative to the amount of the substrate decomposition in the reaction mixture without a test compound was regarded as an IC₅₀ value. The final concentration of HLE and a synthesized substrate in the reaction mixture were 5.63 nM and 0.2625 mM, respectively.” left out

For assay [4], the system named is neutrophiles from the human peripheral blood. Put plainly: Human neutrophile chemotaxis suppressing activity (fMLP, chemotaxis chamber). In kind it is cell-based. The following applies: Concentration 12.5 µM, 10-⁷M fMLP, one hour at 37°C. Here is the method:
The neutrophile fraction (60% percoal fraction having neutrophile purity of 90% or more) was taken from the human peripheral blood by means of percoal density gradient centrifugation at 2300 rpm for 20 minutes.
An intercell having a pore diameter of 5 µm, containing 8 x 10⁵ of neutrophiles and the compound of the present invention adjusted in various concentrations was placed in each well of a chemotaxis chamber (KURABO), in which has been added 1300 µl of a medium containing 10-⁷M of formylmethionyl-leucyl-phenylalanine (fMLP), which is a neutrophile chemotaxis factor. After incubating for one hour at 37°C in an incubator containing 5% carbon dioxide, the number of cells migrating from the upper side of the intercell membrane into the lower side of the membrane in the chamber was counted by the following method. That is, the lower side surface of the intercell membrane was washed with PBS for 4 times and fixed with methanol and dyed with hematoxylin-eosin solution. The membrane was removed from the intercell and placed on a slide, dried in air, followed by sealing with Canada balsam. The cell number was microscopically counted in 5 visual fields. Taking average number of the five fields, the average was employed as the number of migrating cells. The value subtracting the migrating cell number in a control experiment containing no fMLP from the cell number in an experiment containing no the compound of the present invention was regarded as 100, the chemotaxis suppressing activity was determined as the following formula: Neutrophilic chemotaxis suppressing activity (%) [formula] = 100 - A/B x 100 [formula] = 100 - (C - D)/(E-D) x 100 [formula] Where: • A: chemotaxis measured in the experiment containing the compound of the present invention; • B: chemotaxis measured in the experiment not containing the compound of the present invention • C: the number of migrating cells measured in the experiment containing both the compound of the present invention and fMLP. • D: the number of migrating cells in the experiment containing neither the compound of the present invention nor fMLP. • E: the number of migrating cells in the experiment containing only fMLP.

`Cc1cccc2nc([C@@H](NC(=O)OCC(c3ccccc3)c3ccccc3)C(C)C)oc(=O)c12` [Compound 1, 2-[1(S)-[(2,2-diphenylethoxy-carbonyl)amino]-2-methylpropyl]-5-methyl-4H-3,1-benzoxazin-4-one]: the figures for the IC50 in assay [1], in assay [2] and in assay [3] were greater than 12.5 µM, 1.4 µM and greater than 12.5 µM, respectively. Further, in assay [4] (experiment without compound regarded as 100), the Chemotaxis is given as 4.7. In assay [4] (Homo sapiens, 1 h), this molecule showed an activity at 12.5 µM of 95.3%.

Values taken from patent EP0569598A1, “BENZOXAZINONE DERIVATIVE” (JAPAN TOBACCO INC., priority 1991, dated 1993).
